This is an account of results in article PMC9181589, “Antamanide Analogs as Potential Inhibitors of Tyrosinase” (International Journal of Molecular Sciences, 2022).

“Also recorded” adds a separate entry of the source.

In assay [1] the test system is B16F10 metastatic cells. Particulars: after 24 h of treatment; cited from earlier work. The text has this:
In the past years, we evaluated the chemical and biological activities of the cyclic decapeptide antamanide, firstly isolated from the lipophilic fraction of an extract of Amanite phalloides by the T. Wieland’s group in 1962 [3]. A characteristic of this peptide is its ability to form complexes of high stability with metal ions, including Na^+, K^+, Ca^2+, Tl^3+, and others. A close correlation has been found between the ion binding properties and the selectivity for Na^+ over K^+ with its antitoxic activity against phallotoxins and the prevention of their accumulation ... || Antamanide is a cyclic decapeptide isolated from the lipophilic fraction of an extract of the green toadstool Amanite phalloides, able to form complexes of high stability with different metal ions. In order to improve the hydrophilicity of this peptide, the Phe residue at either the six or nine positions was replaced with a Gly residue.

For assay [2], the system named is mushroom tyrosinase. Put plainly: Tyrosinase inhibition, UV-Vis spectroscopic method (L-Tyr oxidation by tyrosinase/O2). The class given is biochemical. From the text: The capability of peptides to inhibit the activity of tyrosinase has been evaluated by a UV-Vis spectroscopic method monitoring the changes in the UV-Vis spectrum of its natural substrate, L-Tyr. […] The addition of enzyme firstly hydroxylated the L-Tyr residue to dihydroxyphenylalanine (DOPA) and successively oxidized DOPA to dopaquinone, which is then converted to dopachrome (Scheme 2). Both DOPA and dopaquinone appearance can be detected by the change in the UV-Vis spectrum. The hydroxylation of L-Tyr to DOPA is characterized by an increase in the intensity of the band at 275 nm and the appearance of an additional band at about 304 nm, while the oxidation to dopaquinone is made detectable by the appearance of a band at 470–490 nm. […] This phase is related to the monophenolase activity of the enzyme and essentially is due to the low amount of the oxy form of the tyrosinase enzyme in the commercially available preparation. Although other various factors may play an important role, including substrate and enzyme concentration, enzyme source, pH of the medium, and presence of hydrogen donors such as DOPA or other catechols, also the presence of transition metal ions can influence the presence and the length of this lag-phase.
Millimolar peptide stock solutions were prepared in DMSO and then diluted to μM concentration by buffer in UV cells. […] The capability of peptides to inhibit the tyrosinase activity was evaluated at two different peptide concentrations, 2 and 0.2 µM.
The capability of cyclic peptides to inhibit the oxidation of Tyr by the tyrosinase/O2 oxidizing system was monitored by means of a UV-Vis spectroscopy method, carried out in a Shimadzu UV-Visible UV-2501 spectral spectrophotometer using Helma (Mülheim, Germany) duple chambers UV-cell (2 × 4.375 mm). Briefly, 880 µL of a Tyr solution (2 mM) and 900 µL of a mushroom tyrosinase solution (2000 U/mL, Sigma-Aldrich), both dissolved in 50 mM phosphate buffer (pH 6.8), were separately introduced in the duple UV-cell chambers. A total of 20 µL of an appropriate DMSO stock solution of inhibitors (1.8, 0.18, or 0.018 mM) were added to the chamber containing the Tyr solution. The tyrosinase activity in absence of inhibitors was detected by adding 20 µL of DMSO. A background UV-Vis spectrum was acquired in the 250–800 nm wavelength range with a 2.0 nm slit and fast speed before starting the reaction. Thereafter, the solutions were mixed, and UV-Vis spectra were acquired at different time points after mixing. Three replicates were performed for each experiment. Data processing was performed with UV Probe (Shimazdu, Kyoto, Japan) and OriginPro 2019 (v. 9.60) software (OriginLab Corporation, Northampton, MA, USA).
Purchased mushroom tyrosinase was used without further purification. […] The concentration of the two solution was determined spectrophotometrically (εTyr at 274.6 nm = 1.420; εtyrosinase at 280 nm = 1.426).
Tyrosinase-dependent diphenol and o-quinone formation was assessed as the appearance of a characteristic absorption band at about 304 and 477 nm, respectively. The inhibition activity was determined according to the following equation [33, 34]:% inhibition = 1 − [(D − C)/(B − A)] ∗ 100 where C and D are the absorbance values at either 304 or 477 nm in presence of inhibitor before mixing and upon reaching the maximum absorbance, respectively, while A and B are the corresponding values in absence of inhibitor.

The conditions of assay [3]: cited from earlier work. The text has this: Antamanide is a cyclic decapeptide isolated from the lipophilic fraction of an extract of the green toadstool Amanite phalloides, able to form complexes of high stability with different metal ions. In order to improve the hydrophilicity of this peptide, the Phe residue at either the six or nine positions was replaced with a Gly residue.

For antamanide, the “cell proliferation of metastatic melanoma cell line” value in assay [1] is “significant reduction of cell proliferation”. The “effects on tyrosinase activity” value in assay [2] (antamanide concentration 20 µM, data not shown) is “absence of effects”. The tyrosinase inhibitory activity result in assay [2] (peptide 2 and 0.2 µM from DMSO stock, L-Tyr substrate, 50 mM phosphate buffer pH 6.8, UV-Vis at 304 and 477 nm, three replicates) is reported as “did not inhibit; also recorded: No inhibitory activity; also recorded: not able to inhibit”. Besides, the ions selectivity entry in assay [3] is “Ca > Na >> K”.

For pseudostellarin A [PS-A], in assay [2] (2 versus 0.2 µM (Figure 4)), the “dependence of tyrosinase inhibitory activity on peptide concentration” value was “lower when the concentration was higher”. Also, in assay [2] (calculated at 303 nm, peptide 2 and 0.2 µM, 50 mM phosphate buffer pH 6.8), the “inhibitory activity towards the hydroxylation of tyrosine” value is reported as “low activity”. In assay [2] (calculated at 477 nm, peptide 2 and 0.2 µM, 50 mM phosphate buffer pH 6.8, three replicates), the “inhibition of the oxidation of DOPA to dopaquinone” value is “about 30%”.
